Laboratory results reported in patent EP0079141A1, “Aminoresorcinol derivatives” (ONO PHARMACEUTICAL CO., LTD., priority 1981, dated 1983).
Where a name gives a salt, the structure may show the parent alone.

Assays:
[1] = molecular target: T1, 5-lipoxygenase (Cavia porcellus, UniProt A0A286X958); assay: Enzyme assay using the 105,000 x g supernate of sonicated polymorphonuclear leukocytes: production of 5-HETE, 5,12-diHETE and LTB; type: biochemical; settings: supernate enzyme of guinea pig polymorphonuclear leukocytes, 5 min at 30°C, 1 mM calcium chloride, read-out: concentration for a 50% inhibition of 5-lipoxygenase, i.e. IC50
T1 sequence (A0A286X958 1-674): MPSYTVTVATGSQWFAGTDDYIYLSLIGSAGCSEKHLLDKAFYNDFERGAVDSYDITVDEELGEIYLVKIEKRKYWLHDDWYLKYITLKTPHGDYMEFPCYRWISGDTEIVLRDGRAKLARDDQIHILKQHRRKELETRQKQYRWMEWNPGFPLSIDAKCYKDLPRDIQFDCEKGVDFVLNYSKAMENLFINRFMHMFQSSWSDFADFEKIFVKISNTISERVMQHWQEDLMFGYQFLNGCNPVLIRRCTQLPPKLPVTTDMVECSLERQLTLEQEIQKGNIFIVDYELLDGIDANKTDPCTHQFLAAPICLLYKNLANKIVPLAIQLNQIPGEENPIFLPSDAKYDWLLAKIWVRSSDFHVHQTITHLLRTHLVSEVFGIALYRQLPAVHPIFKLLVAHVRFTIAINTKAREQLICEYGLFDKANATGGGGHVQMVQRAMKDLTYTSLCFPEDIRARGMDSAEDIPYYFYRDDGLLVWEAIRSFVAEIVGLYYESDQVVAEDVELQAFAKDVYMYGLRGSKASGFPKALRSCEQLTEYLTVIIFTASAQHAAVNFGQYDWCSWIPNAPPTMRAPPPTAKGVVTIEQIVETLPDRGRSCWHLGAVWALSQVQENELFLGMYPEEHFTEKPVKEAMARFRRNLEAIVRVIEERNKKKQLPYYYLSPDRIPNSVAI
Experimental: Further, in another assay system, the inhibitory activity of compounds of the present invention on 5-lipoxygenase only was also evaluated by using an enzyme prepared from polymorphonuclear leukocytes of guinea pig. Guinea pig was treated by casein and harvested polymcrphonuclear leukocytes from cavity were sonicated, followed by the centrifugation at 105,000 x g. The supernate was used as an enzyme throughout this work. The supernate (100 - 500 µg of protein) was incubated for 5 minutes at 30°C with [^14C] arachidonic acid and 1 mM calcium chloride in the presence or in the absence of test compound. The reaction was terminated by the addition of ether.

[2] = molecular target: T1, 5-lipoxygenase; assay: Screening assay using polymorphonuclear leukocytes: production of 5-HETE from [14C] arachidonic acid; type: cell-based; settings: intact polymorphonuclear leukocytes from guinea pig, 5 min preincubation and 5 min incubation at 37°C, read-out: concentration for 50% inhibition on 5-lipoxygenase
Experimental: The experiments for screening using polymorphonuclear leukocytes were carried out as follows: The reaction mixture (0.1 ml) containing 5 µmole of potassium phosphate at pE 7.4, 0.1 µmole of calcium chloride, polymorphonuclear leukocytes prepared from guinea pigs (4 x 10^7 cells) and test compound, was preincubated for 5 minutes at 37°C. The reaction was started by the addition of [^14C) arachidonic acid (2.2 x 10^5 dpm, 1.8 nmole), followed by the incubation at 37°C for 5 minutes. The reaction was terminated by the addition of 0.3 ml of a mixture of ether/methanol/lM citric acid (30/4/1). The organic phase (20 µl) was applied to silica gel plate. Thin layer chromatography was performed to separate each product with solvent system of ether/petroleum ether/acetic acid (85/15/0.1).
Activity of 5-lipoxygenase and cyclooxygenase were calculated from the measurements of the production of 5-HETE, and 12L-hydroxy-5,8,lC-heptatrienoic acid (i.e. HHT) or thromboxane B2 (i.e. TXB2), respectively [it has been known that HHT and TXB2 are the last products of the system concerning cyclooxygenase in the arachidonate cascade]. The concentrations for 50% inhibitions on 5-lipoxygenase and on cyclooxygenase were evaluated by using the concentration of compounds of the present invention required 50% inhibitions on the productions of 5-HETE, and HHT or TXB2, respectively.

Row | IC50 [1] | IC50 [2] | Compound
1 | 2000 nM |  | COC(c1ccc(Cl)cc1)c1cc(Cl)c(O)c(N)c1O (centres unmarked) [2-Amino-4-chloro-6-(a-methoxy-4-chlorobenzyl)resorcinol hydrochloride]
2 | 6670 nM |  | Nc1cc(C(=O)c2ccccc2)c(O)cc1O [4-Amino-6-benzoylresorcinol hydrochloride]
3 | 2630 nM |  | Nc1c(O)c(Cl)cc(C(=O)c2ccc(Cl)cc2)c1O [2-Amino-4-chloro-6-(4-chlorobenzoyl)resorcinol hydrochloride]
4 | 400 nM | 300 nM | Nc1c(O)ccc(C(=O)c2ccccc2)c1O [2-Amino-6-benzoylresorcinol hydrochloride]
